Data set [1] concerns monkey eye. The data set is described as follows: IOP after additional instillation 12 hours after instillation of 0.005% latanoprost in monkeys (Example 2). It counts as in vivo, cynomolgus monkeys. To be noted: 30 μL; for effect on IOP of additional instillation, compared with 0.005% latanoprost alone: 0.0005% solution, instilled 12 hours after instillation of 0.005% latanoprost, IOP followed to 32 hours. The text has this:
This Example illustrates the employment of a low dose of 15-keto latanoprost for maintaining a low IOP level following single administration of another IOP reducing agent for obtaining a rapid drop in IOP.
The changes of IOP in 3 different treatment groups were compared to investigate the significance of the presence of 15-keto acid of latanoprost, a 13,14-dihydro-15-keto type metabolite, in maintaining the IOP lowering effect observed after instillation of latanoprost.
15-keto-latanoprost and latanoprost which were synthesized in Ueno Institute for Medical Science were used.
Six male cynomolgus monkeys (body weight: 3.2-3.8 kg) were used. These monkeys were housed individually in cages for monkeys in a monkey rearing room which was maintained at room temperature of 24±1° C., relative humidity of 55±10%, and ventilation of about 12 times/hour and a 12-hour light-dark cycle (fluorescent lighting: 8:00 a.m. to 8:00 p.m.). The animals were given solid food for monkeys (PS, Oriental Yeast Co., Ltd.), vegetables and fruits, and allowed free access to tap water from an automatic dispenser. The healthy animals without abnormalities in the anterior segment were used in this study.
0.0005% and 0.005% latanoprost eye drops and 0.0005% 15-keto-latanoprost eye drops were prepared with a vehicle consisting of the following composition. The composition of the vehicles in 1 mL was as follows: sodium chloride (4.1 mg), sodium hydrogenphosphate-1H2O (4.6 mg), disodium hydrogenphosphate-2H2O (5.94 mg), benzalkonium chloride (0.200 mg) and water for injection (1 mL).
In the present study, changes in IOP after instillation of 0.005% latanoprost alone at the clinical concentration were compared with those in IOP after additional instillation of 0.0005% latanoprost or 0.0005% 15-keto-latanoprost 12 hours after instillation of 0.005% latanoprost to investigate the significance of the presence of a 13,14-dihydro-15-keto type metabolite in maintaining the IOP lowering effect observed after instillation of latanoprost.
The following 3 treatments were given to the right eye of monkeys at the intervals of at least 10 days. […]
After the ocular surface of monkeys was anesthetized with 0.4% oxybuprocaine hydrochloride (Benoxil® 0.4% solution, Santen Pharmaceutical Co., Ltd.) under i.m. systemic anesthesia with 5-7.5 mg/kg of ketamine hydrochloride, IOP was measured with an applanation pneumatonograph (Alcon Japan Ltd.). IOP was measured before instillation and at 4, 8, 12, 16, 20, 24, 28 and 32 hours after instillation of 0.005% latanoprost.

Data set [2] can be described thus: Ocular side effects of topical application (stated, no method described). It counts as in vivo. The settings on record: 15-keto latanoprost at the dosages described herein.
The test system of data set [3] is monkey eye. The data set is described as follows: IOP test after a single topical ocular instillation in monkeys (Example 1). It counts as in vivo, cynomolgus monkeys. To be noted: 0.0005% solution, 35 μL/eye; for intraocular pressure lowering effect (in words): compared with vehicle-treated contralateral eye, Student's t-test. The source says: This Example is an IOP test using the monkey eye in which about one tenth the clinical dose of latanoprost is compared in IOP reduction with the same dose of 15-keto latanoprost.
The intraocular pressure lowering effects of the 0.0005% solution of 13,14-dihydro-15-keto-17-phenyl-18,19,20-trinor-PGF2α-isopropyl ester (15-keto-latanoprost) and the 0.0005% solution of 13,14-dihydro-17-phenyl-18,19,20-trinor-PGF2α-isopropyl ester (latanoprost) were compared following a single, topical ocular instillation in monkeys.
The solution containing 15-keto-latanoprost or latanoprost at 0.0005% was prepared with the following vehicle. Composition of the vehicle^1) (/mL): NaCl (4.1 mg), NaH2PO4—H2O (4.6 mg), Na2HPO4—2H2O (5.94 mg), Benzalkonium Chloride (0.2 mg) and water for injection
Five male cynomolgus monkeys purchased from Kasyo Co., Ltd. were used. These monkeys were housed individually in cages for monkeys in a room which was maintained at room temperature of 24±1° C., relative humidity of 55±10%, ventilation rate of about 12 times/hour and 12-hour light-dark cycle (fluorescent lighting: 8:00 a.m. to 8:00 p.m.). The animals were given food pellets for monkeys (PS, Oriental Yeast Co., Ltd.), vegetables and fruits, and allowed free access to tap water from an automatic dispenser. The healthy animals without abnormalities in the anterior segment of the eye were used in this study.
Five monkeys were divided into 2 groups of the group 1 (3 monkeys) and group 2 (2 monkeys). […]
The animals were systemically anesthetized by an intramuscular injection of 5 mg/kg of ketamine hydrochloride (Ketalar®50, Sankyo Co., Ltd.), and the anterior segment of both eyes was anesthetized by a instillation of 0.4% oxybuprocaine hydrochloride (Benoxil® 0.4% solution, Santen Pharmaceutical Co., Ltd.). The animals were fixed in a sitting position, and the intraocular pressure was measured by use of an applanation pneumatonograph (Alcon Japan Ltd.) before, and 2, 4, 8, 12 and 24 hours after the instillation. […]
The data were statistically analyzed with Student's t-test.

For data set [4] the following is noted: latanoprost at its clinical concentration; cited from earlier work.
The mark [5] stands for this setting: single instillation of 0.005% latanoprost (clinical concentration), right eye.

`CC(C)OC(=O)CCC/C=C\C[C@@H]1[C@@H](CCC(=O)CCc2ccccc2)[C@H](O)C[C@@H]1O` [15-keto-latanoprost, 13,14-dihydro-15-keto-17-phenyl-18,19,20-trinor-PGF2α-isopropyl ester]: in data set [1], the “effect on IOP of additional instillation, compared with 0.005% latanoprost alone” value is “maintained at significantly low levels”. Besides, the “ocular side effects (iridic pigmentation, initial IOP spike, hyperemia)” value in data set [2] is “does not cause iridic pigmentation, an initial IOP spike nor any hyperemia”. Further, the “intraocular pressure lowered as compared with the pre-treatment value” in data set [3] (8 hours after the instillation, n=5) worked out at 2.4 mmHg. Further, the “intraocular pressure lowering effect (in words)” value in data set [3] is “statistically significant”.

As to `CC(C)OC(=O)CCC/C=C\C[C@@H]1[C@@H](CC[C@@H](O)CCc2ccccc2)[C@H](O)C[C@@H]1O` [latanoprost, 13,14-dihydro-17-phenyl-18,19,20-trinor-PGF2α-isopropyl ester], the “effect on IOP of additional instillation, compared with 0.005% latanoprost alone” value in data set [1] is reported as “did not affect IOP”. Moreover, in data set [1] (setting [5]), the “time at which intraocular pressure returned to the predosing level” value was found to be 24 h and the “time of maximum reduction of intraocular pressure after instillation” value amounted to 12 h. Besides, the “ocular side effects (iris pigmentation, IOP spike, hyperemia)” value in data set [4] is listed as “can cause pigmentation of the iris, a mild IOP spike and/or mild hyperemia”. Moreover, the “intraocular pressure lowering effect (in words)” value in data set [3] is given as “did not lower the intraocular pressure”.

The values above are taken from patent US6596765B2, “Treatment of ocular hypertension and glaucoma” (Sucampo AG, priority 2000, dated 2003).
